Measured values: ChEMBL document CHEMBL5096221, “Discovery of a Highly Potent and Orally Bioavailable STAT3 Dual Phosphorylation Inhibitor for Pancreatic Cancer Treatment” (J Med Chem, 2022)
The source made the active and inactive calls. No cut-off for these calls is given here.

What was measured:
CFPAC-1 = test: Inhibition of mitochondrial respiration in human CFPAC-1 cells assessed as reduction in basal respiration rate at 1 to 30 nM incubated for 1 hr by seahorse XF96 flux analyzer; format: functional, cell-based; conditions: dose 1-30 nM, DDE = dose-dependent effect
[1] = biological target: T1, Signal transducer and activator of transcription 3 (Homo sapiens, UniProt P40763); test: Inhibition of STAT3 in human BXPC-3 cells assessed as reduction of Cyclin D1 expression at 1 to 30 nM incubated for 22 to 24 hrs by western blot analysis; format: cell-based; conditions: dose 1-30 nM, time 22-24 hrs, DDE = dose-dependent effect
T1 sequence (P40763 whole entry): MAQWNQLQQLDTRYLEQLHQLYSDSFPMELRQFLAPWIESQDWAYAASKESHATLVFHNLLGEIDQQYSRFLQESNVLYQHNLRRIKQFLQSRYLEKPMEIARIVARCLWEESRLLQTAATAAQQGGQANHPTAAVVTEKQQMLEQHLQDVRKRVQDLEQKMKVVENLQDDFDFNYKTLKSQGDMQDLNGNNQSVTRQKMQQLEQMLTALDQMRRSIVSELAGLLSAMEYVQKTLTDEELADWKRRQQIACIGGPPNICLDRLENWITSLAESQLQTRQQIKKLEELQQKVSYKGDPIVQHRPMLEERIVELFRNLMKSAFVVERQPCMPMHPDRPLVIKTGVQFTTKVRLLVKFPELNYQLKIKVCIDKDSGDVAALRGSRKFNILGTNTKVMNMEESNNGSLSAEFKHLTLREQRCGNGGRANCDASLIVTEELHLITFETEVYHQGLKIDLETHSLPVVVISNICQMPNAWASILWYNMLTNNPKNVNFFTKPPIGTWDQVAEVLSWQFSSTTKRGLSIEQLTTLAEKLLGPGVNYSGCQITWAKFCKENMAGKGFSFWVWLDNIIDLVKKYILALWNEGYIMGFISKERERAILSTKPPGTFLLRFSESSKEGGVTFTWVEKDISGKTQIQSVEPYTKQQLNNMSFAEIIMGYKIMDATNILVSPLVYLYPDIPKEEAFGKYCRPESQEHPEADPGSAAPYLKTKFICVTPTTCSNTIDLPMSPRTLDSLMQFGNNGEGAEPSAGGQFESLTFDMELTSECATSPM

[2] = Clearance at steady state in BALB/c mouse at 1 mg/kg,iv measured upto 24 hrs by LC-MS/MS analysis; format: ADME, organism-based; conditions: BALB/c, in vivo
[3] = biological target: T1, Signal transducer and activator of transcription 3; test: Binding affinity to human recombinant STAT3 expressed in Escherichia coli BL21 by MST assay
[4] = Microsomal stability in rat liver microsomes assessed as compound remaining incubated for 60 mins in presence of NADPH by LC-MS/MS analysis; format: ADME, Microsome; conditions: read-out: Stability
[5] = AUC (0-24hrs) in BALB/c mouse at 10 mg/kg,po measured upto 24 hrs by LC-MS/MS analysis; format: ADME, organism-based; parameters: dose 10 mg/kg, time < 24 hrs, route po; conditions: in vivo
[6] = biological target: T1, Signal transducer and activator of transcription 3; test: Inhibition of STAT3 in human BXPC-3 cells assessed as reduction of c-Myc expression at 1 to 30 nM incubated for 22 to 24 hrs by western blot analysis; format: cell-based; conditions: dose 1-30 nM, time 22-24 hrs, DDE = dose-dependent effect
[7] = biological target: T1, Signal transducer and activator of transcription 3; test: Thermal stabilization of STAT3 in human BXPC-3 cells at 10 microM at 50.6 degreeC incubated for 1 hrs by cellular thermal shift assay; format: cell-based
[8] = Microsomal stability in dog liver microsomes assessed as intrinsic clearance incubated upto 40 mins in presence of NADPH by LC-MS/MS analysis; format: ADME, Canis lupus familiaris, Microsome; conditions: read-out: CLH
[9] = Toxicity in BALB/c mouse xenografted with human BXPC-3 cells assessed as effect on kidney at 10 mg/kg,po administrated once daily for 8 weeks by H and E staining based microscopic analysis; format: organism-based; conditions: in vivo, 1344 h
BXPC-3 [10] = test: Inhibition of colony formation in human BXPC-3 cells at 3 to 10 nM incubated for 5 to 7 days by crystal violet staining assay; format: functional, cell-based; conditions: dose 3-10 nM, time 5-7 day, DDE = dose-dependent effect
[11] = biological target: T1, Signal transducer and activator of transcription 3; test: Inhibition of STAT3 in human BXPC-3 cells assessed as inhibition of STAT3 phosphorylation at Ser 727 at 30 nM incubated for 4 to 24 hrs by western blot analysis; format: cell-based; conditions: time 4-24 hrs, TDE = time-dependent effect
[12] = AUC (0-infinity) in BALB/c mouse at 1 mg/kg,iv measured upto 24 hrs by LC-MS/MS analysis; format: ADME, organism-based; parameters: dose 1 mg/kg, time < 24 hrs, route iv; conditions: in vivo
[13] = AUC (0-infinity) in BALB/c mouse at 10 mg/kg,po measured upto 24 hrs by LC-MS/MS analysis; format: ADME, organism-based; parameters: time < 24 hrs, dose 10 mg/kg, route po; conditions: in vivo
[14] = biological target: Mitogen-activated protein kinase 3 (Homo sapiens, UniProt P27361); test: Inhibition of ERK1 (unknown origin)
Sequence of Mitogen-activated protein kinase 3 (P27361 whole entry): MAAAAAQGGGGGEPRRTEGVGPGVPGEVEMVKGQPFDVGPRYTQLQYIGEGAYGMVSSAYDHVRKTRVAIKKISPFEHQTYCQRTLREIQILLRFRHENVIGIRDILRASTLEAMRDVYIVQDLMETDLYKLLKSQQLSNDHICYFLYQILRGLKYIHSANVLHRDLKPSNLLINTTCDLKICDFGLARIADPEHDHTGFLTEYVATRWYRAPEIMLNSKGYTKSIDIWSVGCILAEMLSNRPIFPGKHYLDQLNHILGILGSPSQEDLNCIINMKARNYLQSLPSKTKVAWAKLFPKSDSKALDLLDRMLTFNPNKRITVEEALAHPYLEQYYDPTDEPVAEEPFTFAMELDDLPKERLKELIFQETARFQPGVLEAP

[15] = biological target: Proto-oncogene tyrosine-protein kinase Src (Homo sapiens, UniProt P12931); test: Inhibition of SRC (unknown origin)
Sequence of Proto-oncogene tyrosine-protein kinase Src (P12931 2-536 limits assumed): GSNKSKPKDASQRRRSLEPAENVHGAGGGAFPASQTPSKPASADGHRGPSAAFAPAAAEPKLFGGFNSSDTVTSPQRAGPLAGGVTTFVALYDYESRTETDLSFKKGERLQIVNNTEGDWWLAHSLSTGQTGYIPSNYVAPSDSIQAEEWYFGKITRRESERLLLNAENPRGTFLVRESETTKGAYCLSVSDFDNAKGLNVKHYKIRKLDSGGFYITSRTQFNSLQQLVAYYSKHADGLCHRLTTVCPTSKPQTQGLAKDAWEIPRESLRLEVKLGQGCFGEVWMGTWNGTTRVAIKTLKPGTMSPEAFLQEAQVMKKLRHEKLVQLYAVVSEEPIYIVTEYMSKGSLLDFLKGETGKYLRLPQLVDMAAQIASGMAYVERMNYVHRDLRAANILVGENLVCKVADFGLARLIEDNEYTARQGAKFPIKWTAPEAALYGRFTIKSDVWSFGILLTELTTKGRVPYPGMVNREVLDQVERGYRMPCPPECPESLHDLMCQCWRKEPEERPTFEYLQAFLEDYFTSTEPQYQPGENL

[16] = Toxicity in BALB/c mouse xenografted with human BXPC-3 cells assessed as body weight change at 30 mg/kg,po administrated once daily for 8 weeks; format: organism-based; conditions: in vivo, 1344 h
[17] = biological target: T1, Signal transducer and activator of transcription 3; test: Inhibition of STAT3 in human BXPC-3 cells assessed as inhibition of IL-6 stimulated nuclear STAT3 phosphorylation at Tyr 705 at 1 to 30 nM by western blot assay; format: cell-based; conditions: dose 1-30 nM
[18] = biological target: T1, Signal transducer and activator of transcription 3; test: Inhibition of STAT3 in human Capan-2 cells assessed as reduction of c-Myc expression at 1 to 30 nM incubated for 22 to 24 hrs by western blot analysis; format: cell-based; conditions: dose 1-30 nM, time 22-24 hrs, DDE = dose-dependent effect
Cytochrome P450 1A2 = biological target: T2, Cytochrome P450 1A2 (Homo sapiens, UniProt P05177); test: Inhibition of CYP1A2 in human liver microsomes using phenacetin as substrate incubated for 30 mins in presence of NADPH by HPLC analysis; format: ADME, Microsome
T2 sequence (P05177 whole entry): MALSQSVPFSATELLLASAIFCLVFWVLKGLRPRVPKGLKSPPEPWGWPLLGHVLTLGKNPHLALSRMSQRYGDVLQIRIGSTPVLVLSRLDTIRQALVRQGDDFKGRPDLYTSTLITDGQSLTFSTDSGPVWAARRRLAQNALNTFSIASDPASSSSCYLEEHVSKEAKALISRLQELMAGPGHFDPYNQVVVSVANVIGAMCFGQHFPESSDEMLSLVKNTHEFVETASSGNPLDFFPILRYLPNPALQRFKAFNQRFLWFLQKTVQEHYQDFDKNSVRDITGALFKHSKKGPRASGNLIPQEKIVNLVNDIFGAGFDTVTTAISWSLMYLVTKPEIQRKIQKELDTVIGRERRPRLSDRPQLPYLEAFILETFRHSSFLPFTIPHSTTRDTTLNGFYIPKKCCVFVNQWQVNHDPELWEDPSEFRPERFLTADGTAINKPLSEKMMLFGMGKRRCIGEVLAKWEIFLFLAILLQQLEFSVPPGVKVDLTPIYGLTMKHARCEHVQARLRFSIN

BXPC-3 [19] = test: Inhibition of mitochondrial respiration in human BXPC-3 cells at 1 to 30 nM incubated for 1 hr by seahorse XF96 flux analyzer; format: functional, cell-based; conditions: dose 1-30 nM, DDE = dose-dependent effect
PC-3 = test: Inhibition of colony formation in human PC-3 cells at 1000 nM incubated for 5 to 7 days by crystal violet staining assay; format: functional, cell-based; conditions: time 5-7 day
[20] = Half life in BALB/c mouse at 1 mg/kg,iv measured upto 24 hrs by LC-MS/MS analysis; format: ADME, organism-based; conditions: in vivo
[21] = MRT (0 to last) in BALB/c mouse at 10 mg/kg,po measured upto 24 hrs by LC-MS/MS analysis; format: ADME, organism-based; conditions: in vivo
Mus musculus = test: In vivo inhibition of STAT3 in BALB/c mouse xenografted with human BXPC-3 cells assessed as inhibition of STAT3 phosphorylation at Tyr 705 at 30 mg/kg,po administrated once daily for 8 weeks by immunohistochemical analysis; format: functional, organism-based
[22] = biological target: Tyrosine-protein kinase JAK2 (Homo sapiens, UniProt O60674); test: Inhibition of JAK2 (unknown origin)
Sequence of Tyrosine-protein kinase JAK2 (O60674 whole entry): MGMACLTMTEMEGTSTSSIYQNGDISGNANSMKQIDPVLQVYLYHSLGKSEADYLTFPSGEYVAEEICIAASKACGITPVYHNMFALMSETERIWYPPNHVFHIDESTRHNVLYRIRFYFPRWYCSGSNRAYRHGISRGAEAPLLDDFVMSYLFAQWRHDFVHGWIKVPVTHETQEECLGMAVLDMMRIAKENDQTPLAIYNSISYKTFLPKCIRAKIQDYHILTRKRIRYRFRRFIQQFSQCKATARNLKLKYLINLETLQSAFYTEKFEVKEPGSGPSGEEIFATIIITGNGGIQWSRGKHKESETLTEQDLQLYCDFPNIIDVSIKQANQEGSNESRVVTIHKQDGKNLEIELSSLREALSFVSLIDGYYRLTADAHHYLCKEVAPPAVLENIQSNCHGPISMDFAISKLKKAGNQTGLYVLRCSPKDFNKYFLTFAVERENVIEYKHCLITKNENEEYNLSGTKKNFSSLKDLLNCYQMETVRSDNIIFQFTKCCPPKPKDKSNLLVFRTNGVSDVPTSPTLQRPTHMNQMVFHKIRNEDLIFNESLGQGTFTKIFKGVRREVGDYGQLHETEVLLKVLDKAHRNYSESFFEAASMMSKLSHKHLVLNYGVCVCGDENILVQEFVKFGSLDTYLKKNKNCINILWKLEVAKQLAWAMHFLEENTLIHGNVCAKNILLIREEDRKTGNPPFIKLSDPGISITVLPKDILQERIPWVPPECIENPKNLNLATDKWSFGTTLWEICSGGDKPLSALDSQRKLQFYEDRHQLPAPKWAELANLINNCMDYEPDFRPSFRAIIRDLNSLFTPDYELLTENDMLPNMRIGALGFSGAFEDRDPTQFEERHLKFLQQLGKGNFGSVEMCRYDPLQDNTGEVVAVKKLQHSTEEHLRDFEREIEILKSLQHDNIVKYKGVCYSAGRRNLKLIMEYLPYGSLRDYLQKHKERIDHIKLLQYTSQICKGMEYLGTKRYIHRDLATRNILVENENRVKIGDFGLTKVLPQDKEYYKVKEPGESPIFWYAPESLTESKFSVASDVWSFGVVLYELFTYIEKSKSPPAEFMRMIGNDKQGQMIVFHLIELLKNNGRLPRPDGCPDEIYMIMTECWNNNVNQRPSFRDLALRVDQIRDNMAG

BXPC-3 [23] = test: Inhibition of mitochondrial respiration in human BXPC-3 cells assessed as reduction in basal respiration rate at 1 to 30 nM incubated for 1 hr by seahorse XF96 flux analyzer; format: functional, cell-based; conditions: dose 1-30 nM, DDE = dose-dependent effect
[24] = AUC (0-24hrs) in BALB/c mouse at 1 mg/kg,iv measured upto 24 hrs by LC-MS/MS analysis; format: ADME, organism-based; parameters: time < 24 hrs, dose 1 mg/kg, route iv; conditions: in vivo
[25] = biological target: T1, Signal transducer and activator of transcription 3; test: Inhibition of STAT3 in human Capan-2 cells assessed as inhibition of STAT3 phosphorylation at Ser 727 at 10 nM incubated for 22 to 24 hrs by western blot analysis; format: cell-based; conditions: time 22-24 hrs
[26] = biological target: T1, Signal transducer and activator of transcription 3; test: Inhibition of STAT3 in human Capan-2 cells assessed as inhibition of STAT3 phosphorylation at Ser 727 at 30 nM incubated for 4 to 24 hrs by western blot analysis; format: cell-based; conditions: time 4-24 hrs, TDE = time-dependent effect

COc1ccc(-c2noc(-c3cnc(Oc4ccc5cc(C(=O)N6CCN(Cc7ccc(OCC(F)(F)F)cc7)CC6)n(C)c5c4)cn3)n2)cc1
inhibition (CFPAC-1): Dde
inhibition [1]: Dde
clearance [2]: 1.43 mL/min/kg
Kd [3]: 0.0213 µM
remaining at 1 h [4]: 60.5%
AUC(0-t) at 24 h [5]: 27600 ng·h/mL
inhibition [6]: Dde
Activity [7]: Active
microsomal CLint [8]: 18.4 µL/min/mg
Activity [9]: Non-Toxic
inhibition (BXPC-3 [10]): Dde
inhibition [11]: Tde
AUC(0-inf) [12]: 11600 ng·h/mL
AUC(0-inf) [13]: 34900 ng·h/mL
IC50 [14]: > 10 µM
IC50 [15]: > 10 µM
Activity [16]: Non-Toxic
inhibition [17]: Active
inhibition [18]: Dde
IC50 (Cytochrome P450 1A2): > 50 µM
inhibition (BXPC-3 [19]): Dde
inhibition (PC-3): Active
half-life [20]: 10.2 h
MRT last at 24 h [21]: 9.8 h
inhibition (Mus musculus): Active
IC50 [22]: > 10 µM
inhibition (BXPC-3 [23]): Dde
AUC(0-t) at 24 h [24]: 9510 ng·h/mL
inhibition [25]: Active
inhibition [26]: Tde
